# Source: patent publication US20250281424A1 (New York Blood Center, Inc, priority 2020, published 2025)
# Biological target: T1, human PF4 (Homo sapiens, UniProt P02776)
# T1 construct: PF4 is a 70 amino acid, lysine-rich 7.8 kDa platelet-specific protein; made in house; host or cells: Escherichia coli BL21DE3 pLysS (pT7-7) and/or Drosophila S2 cells
# T1 sequence (P02776 32-101): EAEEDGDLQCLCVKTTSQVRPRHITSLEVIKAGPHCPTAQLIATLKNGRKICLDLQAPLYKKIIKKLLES
# Experiment: Inhibition of PF4 tetramer formation (BS3 cross-linking, SDS-PAGE)
# Type: biochemical
# Conditions: for inhibition at 5 µM: 5 μM inhibitor; for inhibition at 5 µM / inhibition at 10 µM / inhibition at 1 µM / inhibition at 3 µM: read-out: % inhibition of PF4 tetramer formation at single concentration of inhibitor; for inhibition at 10 µM: 10 μM inhibitor (column A); for IC50: read-out: IC50 of PF4 tetramer formation inhibition; for inhibition at 1 µM: 1 μM inhibitor; for inhibition at 3 µM: 3 μM inhibitor (column A)
# In short: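 Recombinant human wild-type PF4 (E. coli-expressed, heparin-purified), 10 μg/ml in PBS, incubated with compound 15 min at 37° C or 60 min at room temperature, then cross-linked with 0.2 mM BS3 for 30 min at room temperature. Reducing 12% SDS-PAGE; bands quantified as % tetramer, trimer, dimer, monomer versus compound-free control.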
inhibition at 5 µM,inhibition at 10 µM,IC50,Compound,inhibition at 1 µM,inhibition at 3 µM
–,81%,10 µM,"CSCCCC(=O)C1C(=O)c2ccc(C(=O)c3ccc4c(c3)C(=O)C(C(=O)CCCSC)C4=O)cc2C1=O (stereo not drawn) [Example 284, 2-[4-(methylsulfanyl)butanoyl]-5-{2-[4-(methylsulfanyl)butanoyl]-1,3-dioxo-2,3-dihydro-1H-indene-5-carbonyl}-2,3-dihydro-1H-indene-1,3-dione]",–,–
0%,0%,–,"COCCNC(=O)C1C(=O)c2ccc(S(=O)(=O)c3ccc4c(c3)C(=O)C(C(=O)NCCOC)C4=O)cc2C1=O (stereo not drawn) [Example 73, 5,5′-sulfonylbis(n-(2-methoxyethyl)-1,3-dioxo-2,3-dihydro-1h-indene-2-carboxamide)]",–,–

# Second part, the compound before the results:
Compound,inhibition at 5 µM,inhibition at 10 µM,IC50,inhibition at 1 µM,inhibition at 3 µM
"O=C(c1ccc2c(c1)C(=O)C(C(=O)[C@@H]1CCCN1C(=O)OCc1ccccc1)C2=O)c1ccc2c(c1)C(=O)C(C(=O)[C@@H]1CCCN1C(=O)OCc1ccccc1)C2=O (stereo partly drawn) [Example 125, benzyl (2S)-2-(5-{2-[(2S)-1-[(benzyloxy)carbonyl]pyrrolidine-2-carbonyl]-1,3-dioxo-2,3-dihydro-1H-indene-5-carbonyl}-1,3-dioxo-2,3-dihydro-1H-indene-2-carbonyl)pyrrolidine-1-carboxylate]",87%,93%,1.2 µM,–,–
"O=C(NCC1CCS(=O)(=O)C1)C1C(=O)c2ccc(Oc3ccc4c(c3)C(=O)C(C(=O)NCC3CCS(=O)(=O)C3)C4=O)cc2C1=O (stereo not drawn) [Example 367, N-[(1,1-dioxo-1λ^6-thiolan-3-yl)methyl]-5-[(2-{[(1,1-dioxo-1λ^6-thiolan-3-yl)methyl]carbamoyl}-1,3-dioxo-2,3-dihydro-1H-inden-5-yl)oxy]-1,3-dioxo-2,3-dihydro-1H-indene-2-carboxamide]",–,–,–,30%,77%
"COCCOCCC(=O)C1C(=O)c2ccc(Oc3ccc4c(c3)C(=O)C(C(=O)CCOCCOC)C4=O)cc2C1=O (stereo not drawn) [Example 383, 2-[3-(2-methoxyethoxy)propanoyl]-5-({2-[3-(2-methoxyethoxy)propanoyl]-1,3-dioxo-2,3-dihydro-1H-inden-5-yl}oxy)-2,3-dihydro-1H-indene-1,3-dione]",–,–,–,20%,45%
"CSCC[C@H](NC(=O)OC(C)(C)C)C(=O)C1C(=O)c2ccc(C(=O)c3ccc4c(c3)C(=O)C(C(=O)[C@H](CCSC)NC(=O)OC(C)(C)C)C4=O)cc2C1=O (stereo partly drawn) [Example 271, tert-butyl N-[(2S)-1-(5-{2-[(2S)-2-{[(tert-butoxy)carbonyl]amino}-4-(methylsulfanyl)butanoyl]-1,3-dioxo-2,3-dihydro-1H-indene-5-carbonyl}-1,3-dioxo-2,3-dihydro-1H-inden-2-yl)-4-(methylsulfanyl)-1-oxobutan-2-yl]carbamate]",–,–,–,21%,38%
"COC(=O)c1ccccc1NC(=O)C1C(=O)c2ccc(C(=O)c3ccc4c(c3)C(=O)C(C(=O)Nc3ccccc3C(=O)OC)C4=O)cc2C1=O (stereo not drawn) [Example 99, methyl 2-[5-(2-{[2-(methoxycarbonyl)phenyl]carbamoyl}-1,3-dioxo-2,3-dihydro-1H-indene-5-carbonyl)-1,3-dioxo-2,3-dihydro-1H-indene-2-amido]benzoate]",44%,100%,13 µM,–,–
"COCCOCCN(CC(=O)C1C(=O)c2ccc(Oc3ccc4c(c3)C(=O)C(C(=O)CN(CCOCCOC)C(=O)OC(C)(C)C)C4=O)cc2C1=O)C(=O)OC(C)(C)C (stereo not drawn) [Example 390, tert-butyl N-{2-[5-({2-[2-(11,11-dimethyl-9-oxo-2,5,10-trioxa-8-azadodecan-8-yl)acetyl]-1,3-dioxo-2,3-dihydro-1H-inden-5-yl}oxy)-1,3-dioxo-2,3-dihydro-1H-inden-2-yl]-2-oxoethyl}-N-[2-(2-methoxyethoxy)ethyl]carbamate]",–,–,–,27%,31%
"CC(C)(C)OC(=O)N1CCOC(C(=O)C2C(=O)c3ccc(C(=O)c4ccc5c(c4)C(=O)C(C(=O)C4CN(C(=O)OC(C)(C)C)CCO4)C5=O)cc3C2=O)C1 (stereo not drawn) [Example 240, tert-butyl 2-[5-(2-{4-[(tert-butoxy)carbonyl]morpholine-2-carbonyl}-1,3-dioxo-2,3-dihydro-1H-indene-5-carbonyl)-1,3-dioxo-2,3-dihydro-1H-indene-2-carbonyl]morpholine-4-carboxylate]",–,–,–,14%,32%
"O=C(O)CNC(=O)C1C(=O)c2ccc(C(=O)c3ccc4c(c3)C(=O)C(C(=O)NCC(=O)O)C4=O)cc2C1=O (stereo not drawn) [Example 309, 2-[(5-{2-[(carboxymethyl)carbamoyl]-1,3-dioxo-2,3-dihydro-1H-indene-5-carbonyl}-1,3-dioxo-2,3-dihydro-1H-inden-2-yl)formamido]acetic acid]",–,–,–,20%,32%
"CC(C)(C)OC(=O)N1CC2(CC(C(=O)C3C(=O)c4ccc(-c5ccc6c(c5)C(=O)C(C(=O)C5CC7(C5)CN(C(=O)OC(C)(C)C)C7)C6=O)cc4C3=O)C2)C1 (stereo not drawn) [Example 211, tert-butyl 6-(2′-{2-[(tert-butoxy)carbonyl]-2-azaspiro[3.3]heptane-6-carbonyl}-1,1′,3,3′-tetraoxo-1H,1′H,2H,2′H,3H,3′H-[5,5′-biindene]-2-carbonyl)-2-azaspiro[3.3]heptane-2-carboxylate]",76%,95%,3.3 µM,–,–
"O=C(COC1CCCCC1)C1C(=O)c2ccc(S(=O)(=O)c3ccc4c(c3)C(=O)C(C(=O)COC3CCCCC3)C4=O)cc2C1=O (stereo not drawn) [Example 232, 2-[2-(cyclohexyloxy)acetyl]-5-({2-[2-(cyclohexyloxy)acetyl]-1,3-dioxo-2,3-dihydro-1H-inden-5-yl}sulfonyl)-2,3-dihydro-1H-indene-1,3-dione]",–,–,–,10%,67%
"O=C(c1ccc2c(c1)C(=O)C(C(=O)NC1CCS(=O)(=O)C1)C2=O)c1ccc2c(c1)C(=O)C(C(=O)NC1CCS(=O)(=O)C1)C2=O (stereo not drawn) [Example 361, N-(1,1-dioxo-1λ^6-thiolan-3-yl)-5-{2-[(1,1-dioxo-1λ^6-thiolan-3-yl)carbamoyl]-1,3-dioxo-2,3-dihydro-1H-indene-5-carbonyl}-1,3-dioxo-2,3-dihydro-1H-indene-2-carboxamide]",–,–,–,9%,34%
"CC(C)(C)OC(=O)N[C@@H](CC(=O)O)C(=O)C1C(=O)c2ccc(C(=O)c3ccc4c(c3)C(=O)C(C(=O)[C@H](CC(=O)O)NC(=O)OC(C)(C)C)C4=O)cc2C1=O (stereo partly drawn) [Example 188, (3S)-3-{[(tert-butoxy)carbonyl]amino}-4-(5-{2-[(2S)-2-{[(tert-butoxy)carbonyl]amino}-3-carboxypropanoyl]-1,3-dioxo-2,3-dihydro-1H-indene-5-carbonyl}-1,3-dioxo-2,3-dihydro-1H-inden-2-yl)-4-oxobutanoic acid]",88%,94%,2.3 µM,–,–
"O=C(NC1CCCC1)C1C(=O)c2ccc(Oc3ccc4c(c3)C(=O)C(C(=O)NC3CCCC3)C4=O)cc2C1=O (stereo not drawn) [Example 107, N-cyclopentyl-5-{[2-(cyclopentylcarbamoyl)-1,3-dioxo-2,3-dihydro-1H-inden-5-yl]oxy}-1,3-dioxo-2,3-dihydro-1H-indene-2-carboxamide]",–,–,2.9 µM,–,–
